Tests used:
[1] = Molar enthalpy of transition or fusion; conditions: Crystal; DSC
[2] = for molar entropy: 101.33 kPa

O[C@H]1[C@H](O)[C@@H](O)[C@H](O)[C@@H](O)[C@H]1O [cis-1,2,3,5-trans-4,6-cyclohexanehexol]
Conditions	Molar enthalpy of transition or fusion [kcal/mol]
[1]	12

[2]
Conditions	molar entropy [J/K/mol]
1 K, Crystal, relaxation calorimetry	0.001133
2 K, Crystal, relaxation calorimetry	0.00457
3 K, Crystal, relaxation calorimetry	0.01283
4 K, Crystal, relaxation calorimetry	0.0288
5 K, Crystal, relaxation calorimetry	0.05587
6 K, Crystal, relaxation calorimetry	0.09786
7 K, Crystal, relaxation calorimetry	0.1588
8 K, Crystal, relaxation calorimetry	0.2429
9 K, Crystal, relaxation calorimetry	0.3528
10 K, Crystal, relaxation calorimetry	0.4907
15 K, Crystal, relaxation calorimetry	1.619
20 K, Crystal, relaxation calorimetry	3.401
25 K, Crystal, relaxation calorimetry	5.648
30 K, Crystal, relaxation calorimetry	8.19
35 K, Crystal, relaxation calorimetry	10.93
40 K, Crystal, relaxation calorimetry	13.82
45 K, Crystal, relaxation calorimetry	16.84
50 K, Crystal, relaxation calorimetry	19.96
55 K, Crystal, relaxation calorimetry	23.14
60 K, Crystal, relaxation calorimetry	26.38
65 K, Crystal, relaxation calorimetry	29.66
70 K, Crystal, relaxation calorimetry	33
75 K, Crystal, relaxation calorimetry	36.38
80 K, Crystal, relaxation calorimetry	39.8
85 K, Crystal, relaxation calorimetry	43.26
90 K, Crystal, relaxation calorimetry	46.76
95 K, Crystal, relaxation calorimetry	50.29
100 K, Crystal, relaxation calorimetry	53.84
110 K, Crystal, relaxation calorimetry	61.01
120 K, Crystal, relaxation calorimetry	68.23
130 K, Crystal, relaxation calorimetry	75.5
140 K, Crystal, relaxation calorimetry	82.8
150 K, Crystal, relaxation calorimetry	90.1
160 K, Crystal, relaxation calorimetry	97.42
170 K, Crystal, relaxation calorimetry	104.72
180 K, Crystal, relaxation calorimetry	112.03
190 K, Crystal, relaxation calorimetry	119.33
200 K, Crystal, relaxation calorimetry	126.62
210 K, Crystal, relaxation calorimetry	133.91
220 K, Crystal, relaxation calorimetry	141.19
230 K, Crystal, relaxation calorimetry	148.47
240 K, Crystal, relaxation calorimetry	155.74
250 K, Crystal, relaxation calorimetry	163.02
260 K, Crystal, relaxation calorimetry	170.3
270 K, Crystal, relaxation calorimetry	177.58
273.15 K, Crystal, relaxation calorimetry	179.88
280 K, Crystal, relaxation calorimetry	184.87
290 K, Crystal, relaxation calorimetry	192.17
298.15 K, Crystal, relaxation calorimetry	198.12
300 K, Crystal, relaxation calorimetry	199.48
305 K, Crystal, Small sample (50 mg) DSC	203.13
310 K, Crystal, Small sample (50 mg) DSC	206.81
315 K, Crystal, Small sample (50 mg) DSC	210.5
320 K, Crystal, Small sample (50 mg) DSC	214.2
325 K, Crystal, Small sample (50 mg) DSC	217.91
330 K, Crystal, Small sample (50 mg) DSC	221.64
335 K, Crystal, Small sample (50 mg) DSC	225.37
340 K, Crystal, Small sample (50 mg) DSC	229.11
345 K, Crystal, Small sample (50 mg) DSC	232.86
350 K, Crystal, Small sample (50 mg) DSC	236.62
355 K, Crystal, Small sample (50 mg) DSC	240.38
360 K, Crystal, Small sample (50 mg) DSC	244.15
365 K, Crystal, Small sample (50 mg) DSC	247.92
370 K, Crystal, Small sample (50 mg) DSC	251.69
375 K, Crystal, Small sample (50 mg) DSC	255.47
380 K, Crystal, Small sample (50 mg) DSC	259.25
385 K, Crystal, Small sample (50 mg) DSC	263.03
390 K, Crystal, Small sample (50 mg) DSC	266.82
395 K, Crystal, Small sample (50 mg) DSC	270.6
400 K, Crystal, Small sample (50 mg) DSC	274.38
405 K, Crystal, Small sample (50 mg) DSC	278.16
410 K, Crystal, Small sample (50 mg) DSC	281.94
415 K, Crystal, Small sample (50 mg) DSC	285.72
420 K, Crystal, Small sample (50 mg) DSC	289.5
425 K, Crystal, Small sample (50 mg) DSC	293.27
430 K, Crystal, Small sample (50 mg) DSC	297.05
435 K, Crystal, Small sample (50 mg) DSC	300.82
440 K, Crystal, Small sample (50 mg) DSC	304.59
445 K, Crystal, Small sample (50 mg) DSC	308.35
450 K, Crystal, Small sample (50 mg) DSC	312.12
455 K, Crystal, Small sample (50 mg) DSC	315.89
460 K, Crystal, Small sample (50 mg) DSC	319.66
465 K, Crystal, Small sample (50 mg) DSC	323.43
470 K, Crystal, Small sample (50 mg) DSC	327.21
475 K, Crystal, Small sample (50 mg) DSC	331
480 K, Crystal, Small sample (50 mg) DSC	334.8
485 K, Crystal, Small sample (50 mg) DSC	338.61
490 K, Crystal, Small sample (50 mg) DSC	342.46
495 K, Crystal, Small sample (50 mg) DSC	346.55
510 K, Liquid, Small sample (50 mg) DSC	453.9
515 K, Liquid, Small sample (50 mg) DSC	458.89
520 K, Liquid, Small sample (50 mg) DSC	463.79
525 K, Liquid, Small sample (50 mg) DSC	468.65
530 K, Liquid, Small sample (50 mg) DSC	473.46
535 K, Liquid, Small sample (50 mg) DSC	478.23
540 K, Liquid, Small sample (50 mg) DSC	482.95

Conditions	Normal melting temperature [°C]
[2], Crystal, DTA	224.58
